Assay [1] deals with antibodies in sera from SARS patients (sera 1a, 1b, 2, 6, 37, 62, London, SARS-yellow, SARS-green). The format is binding, human. More on the design: Binding of serum 6 to linear peptides of protein X1 of SARS-CoV Urbani / Binding of serum 37 to linear peptides of protein X1 of SARS-CoV Urbani / Binding of serum 6 to looped/cyclic peptide (PEPSCAN-ELISA) / Binding of serum 37 to looped/cyclic peptide (PEPSCAN-ELISA) / Binding of serum 37 to looped/cyclic peptides of protein X1 of SARS-CoV Urbani / Binding of serum 6 to linear peptides of protein X2 / Binding of serum 37 to linear peptides of protein X2 / Binding of serum 37 to looped/cyclic peptides of protein X2 of SARS-CoV Urbani / Binding of serum 6 to linear peptides of protein M of SARS-CoV Urbani / Binding of serum 37 to linear peptides of protein M of SARS-CoV Urbani / Binding of serum 6 to looped/cyclic peptides of protein M of SARS-CoV Urbani / Binding of serum 37 to looped/cyclic peptides of protein M of SARS-CoV Urbani / Binding of serum 6 to linear peptides of protein X3 of SARS-CoV Urbani / Binding of serum 37 to linear peptides of protein X3 of SARS-CoV Urbani / Binding of serum 37 to looped/cyclic peptides of protein X3 of SARS-CoV Urbani / Binding of serum 6 to linear peptides of protein X4 of SARS-CoV Urbani / Binding of serum 37 to linear peptides of protein X4 of SARS-CoV Urbani / Binding of serum 37 to looped/cyclic peptides of protein X4 of SARS-CoV Urbani / Binding of serum 6 to linear peptides of protein X5 of SARS-CoV Urbani / Binding of serum 37 to linear peptides of protein X5 of SARS-CoV Urbani / Binding of serum 37 to looped/cyclic peptides of protein X5 of SARS-CoV Urbani / Binding of serum 6 to linear peptides of protein N of SARS-CoV Urbani / Binding of serum 37 to linear peptides of protein N of SARS-CoV Urbani / Binding of serum 6 to linear peptide (PEPSCAN-ELISA) / Binding of serum 1a to looped/cyclic peptides of protein N of SARS-CoV Urbani / Binding of serum 1b to looped/cyclic peptides of protein N of SARS-CoV Urbani / Binding of serum 2 to looped/cyclic peptides of protein N of SARS-CoV Urbani / Binding of serum 6 to looped/cyclic peptides of protein N of SARS-CoV Urbani / Binding of serum 37 to looped/cyclic peptides of protein N of SARS-CoV Urbani / Binding of serum 62 to looped/cyclic peptides of protein N of SARS-CoV Urbani / Binding of serum London to looped/cyclic peptides of protein N of SARS-CoV Urbani / Binding of serum SARS-green to looped/cyclic peptides of protein N of SARS-CoV Urbani: unit not given here.

Assay [2] deals with rabbit serum obtained by immunizing a rabbit with the SARS-CoV strain Frankfurt 1. The format is binding. More on the design: Binding of a rabbit serum to linear peptides / Binding of a rabbit serum to looped peptides / Rabbit serum linear peptides / Rabbit serum looped peptides / Binding of a rabbit serum to linear peptides of protein N of SARS-CoV Urbani (Rabbit serum linear peptides) / Binding of a rabbit serum to looped/cyclic peptides of protein N of SARS-CoV Urbani (Rabbit serum looped peptides): unit not given here.

Assay [3] has as its system control sera (pooled serum of ten healthy LUMC hospital workers; commercial negative donor pooled serum from the Dutch bloodbank). It counts as binding, human. More on the design: Binding of Control serum LUMC to linear peptides / Binding of Control serum Blood-bank to linear peptides / Binding of Control serum LUMC to looped peptides / Binding of Control Serum Blood-Bank to Looped peptides / Binding of Control serum LUMC to linear peptides of the protein M of SARS-CoV Urbani / Binding of Control serum Blood-bank to linear peptides of the protein M of SARS-CoV Urbani / Binding of Control serum LUMC to looped peptides of the protein M of SARS-CoV Urbani / Binding of Control Serum Blood-Bank to Looped peptides of the protein M of SARS-CoV Urbani: unit not given here.

On to VVILRIGTQVLKTMS, for which, in assay [1], the “Binding of serum 1a to linear peptides of protein X2” value was determined as 0.6, the “Binding of serum 1a to looped/cyclic peptides of protein X2 of SARS-CoV Urbani” value was 0.4, the “Binding of serum 1b to linear peptides of protein X2” value was determined as 0.5 and the “Binding of serum 1b to looped/cyclic peptides of protein X2 of SARS-CoV Urbani” value came to 0.4. Moreover, in assay [1], the “Binding of serum 2 to linear peptides of protein X2” value is recorded as 0.5, the “Binding of serum 2 to looped/cyclic peptides of protein X2 of SARS-CoV Urbani” value stood at 0.3, the “Binding of serum 6 to linear peptides of protein X2” value is given as 0.5 and the “Binding of serum 6 to looped/cyclic peptides of protein X2 of SARS-CoV Urbani” value was found to be 0.3. For the same sequence, in assay [1], the “Binding of serum 37 to linear peptides of protein X2” value is reported as 0.6, the “Binding of serum 37 to looped/cyclic peptides of protein X2 of SARS-CoV Urbani” value is 0.3, the “Binding of serum 62 to linear peptides of protein X2” value was 0.6 and the “Binding of serum 62 to looped/cyclic peptides of protein X2 of SARS-CoV Urbani” value was 0.4. In addition, in assay [1], the “Binding of serum London to linear peptides of protein X2” value is reported as 0.4, the “Binding of serum London to looped/cyclic peptides of protein X2 of SARS-CoV Urbani” value came out at 0.2, the “Binding of serum SARS-green to linear peptides of protein X2” value is reported as 0.5 and the “Binding of serum SARS-green to looped/cyclic peptides of protein X2 of SARS-CoV Urbani” value stood at 0.3. Also, in assay [1], the “Binding of serum SARS-yellow to linear peptides of protein X2” value was 0.6 and the “Binding of serum SARS-yellow to looped/cyclic peptides of protein X2 of SARS-CoV Urbani” value was 0.4. In assay [2], the “Binding of a rabbit serum to linear peptides” value came out at 0.4 and the “Binding of a rabbit serum to looped peptides” value turned out to be 0.4. In assay [3], the “Binding of Control Serum Blood-Bank to Looped peptides” value came out at 0.3, the “Binding of Control serum Blood-bank to linear peptides” value turned out to be 0.7, the “Binding of Control serum LUMC to linear peptides” value is reported as 0.5 and the “Binding of Control serum LUMC to looped peptides” value was found to be 0.3.

As to VVVHGYFTEVYYQLE, in assay [1], the “Binding of serum 1a to linear peptides of protein X1 of SARS-CoV Urbani” value is 0.8, the “Binding of serum 1a to looped/cyclic peptides of protein X1 of SARS-CoV Urbani” value is listed as 0.6, the “Binding of serum 1b to linear peptides of protein X1 of SARS-CoV Urbani” value came to 0.6 and the “Binding of serum 1b to looped/cyclic peptides of protein X1 of SARS-CoV Urbani” value is given as 0.5. For the same sequence, in assay [1], the “Binding of serum 2 to linear peptides of protein X1 of SARS-CoV Urbani” value amounted to 0.6, the “Binding of serum 2 to looped/cyclic peptides of protein X1 of SARS-CoV Urbani” value turned out to be 0.5, the “Binding of serum 6 to linear peptides of protein X1 of SARS-CoV Urbani” value came to 0.4 and the “Binding of serum 6 to looped/cyclic peptides of protein X1 of SARS-CoV Urbani” value stood at 0.3. In assay [1], the “Binding of serum 37 to linear peptides of protein X1 of SARS-CoV Urbani” value was 0.6, the “Binding of serum 37 to looped/cyclic peptides of protein X1 of SARS-CoV Urbani” value is 0.5, the “Binding of serum 62 to linear peptides of protein X1 of SARS-CoV Urbani” value is listed as 0.4 and the “Binding of serum 62 to looped/cyclic peptides of protein X1 of SARS-CoV Urbani” value came to 0.5. In assay [1], the “Binding of serum London to linear peptides of protein X1 of SARS-CoV Urbani” value was 0.2, the “Binding of serum London to looped/cyclic peptides of protein X1 of SARS-CoV Urbani” value was found to be 0.2, the “Binding of serum SARS-green to linear peptides of protein X1 of SARS-CoV Urbani” value is on record as 0.3 and the “Binding of serum SARS-green to looped/cyclic peptides of protein X1 of SARS-CoV Urbani” value was 0.3. In assay [1], the “Binding of serum SARS-yellow to linear peptides of protein X1 of SARS-CoV Urbani” value came to 0.3 and the “Binding of serum SARS-yellow to looped/cyclic peptides of protein X1 of SARS-CoV Urbani” value is 0.4. In assay [2], the “Binding of a rabbit serum to linear peptides” value turned out to be 0.1 and the “Binding of a rabbit serum to looped peptides” value is 0.6. In addition, in assay [3], the “Binding of Control Serum Blood-Bank to Looped peptides” value is on record as 0.4, the “Binding of Control serum Blood-bank to linear peptides” value was 0.5, the “Binding of Control serum LUMC to linear peptides” value was determined as 1.1 and the “Binding of Control serum LUMC to looped peptides” value is recorded as 0.7.

Turning to VYHITVSQIQLSLLK, in assay [1], the “Binding of serum 1a to linear peptides of protein X2” value came out at 0.6, the “Binding of serum 1a to looped/cyclic peptides of protein X2 of SARS-CoV Urbani” value was 0.5, the “Binding of serum 1b to linear peptides of protein X2” value came out at 0.5 and the “Binding of serum 1b to looped/cyclic peptides of protein X2 of SARS-CoV Urbani” value was 0.2. Moreover, in assay [1], the “Binding of serum 2 to linear peptides of protein X2” value turned out to be 0.5, the “Binding of serum 2 to looped/cyclic peptides of protein X2 of SARS-CoV Urbani” value turned out to be 0.2, the “Binding of serum 6 to linear peptides of protein X2” value was 0.5 and the “Binding of serum 6 to looped/cyclic peptides of protein X2 of SARS-CoV Urbani” value is reported as 0.6. For the same sequence, in assay [1], the “Binding of serum 37 to linear peptides of protein X2” value is recorded as 0.7, the “Binding of serum 37 to looped/cyclic peptides of protein X2 of SARS-CoV Urbani” value is 0.4, the “Binding of serum 62 to linear peptides of protein X2” value came to 0.4 and the “Binding of serum 62 to looped/cyclic peptides of protein X2 of SARS-CoV Urbani” value is 0.6. Besides, in assay [1], the “Binding of serum London to linear peptides of protein X2” value came to 0.4, the “Binding of serum London to looped/cyclic peptides of protein X2 of SARS-CoV Urbani” value is given as 1.3, the “Binding of serum SARS-green to linear peptides of protein X2” value was found to be 0.2 and the “Binding of serum SARS-green to looped/cyclic peptides of protein X2 of SARS-CoV Urbani” value came out at 0.3. In assay [1], the “Binding of serum SARS-yellow to linear peptides of protein X2” value was found to be 0.7 and the “Binding of serum SARS-yellow to looped/cyclic peptides of protein X2 of SARS-CoV Urbani” value is on record as 0.3. Besides, in assay [2], the “Binding of a rabbit serum to linear peptides” value came out at 0.9 and the “Binding of a rabbit serum to looped peptides” value was 0.4. Moreover, in assay [3], the “Binding of Control Serum Blood-Bank to Looped peptides” value was 0.6, the “Binding of Control serum Blood-bank to linear peptides” value is listed as 0.5, the “Binding of Control serum LUMC to linear peptides” value is on record as 0.7 and the “Binding of Control serum LUMC to looped peptides” value is listed as 0.4.

As for VYRINWVTGGIAIAM, in assay [1], the “Binding of serum 1a to linear peptides of protein M of SARS-CoV Urbani” value was 0.9, the “Binding of serum 1a to looped/cyclic peptides of protein M of SARS-CoV Urbani” value is on record as 0.7, the “Binding of serum 1b to linear peptides of protein M of SARS-CoV Urbani” value is given as 0.8 and the “Binding of serum 1b to looped/cyclic peptides of protein M of SARS-CoV Urbani” value was 0.4. In assay [1], the “Binding of serum 2 to linear peptides of protein M of SARS-CoV Urbani” value was 0.8, the “Binding of serum 2 to looped/cyclic peptides of protein M of SARS-CoV Urbani” value is listed as 0.6, the “Binding of serum 6 to linear peptides of protein M of SARS-CoV Urbani” value is 1.0 and the “Binding of serum 6 to looped/cyclic peptides of protein M of SARS-CoV Urbani” value is listed as 0.5. For the same sequence, in assay [1], the “Binding of serum 37 to linear peptides of protein M of SARS-CoV Urbani” value was 0.6, the “Binding of serum 37 to looped/cyclic peptides of protein M of SARS-CoV Urbani” value was determined as 0.7, the “Binding of serum 62 to linear peptides of protein M of SARS-CoV Urbani” value is listed as 0.6 and the “Binding of serum 62 to looped/cyclic peptides of protein M of SARS-CoV Urbani” value was determined as 1.1. Further, in assay [1], the “Binding of serum London to linear peptides of protein M of SARS-CoV Urbani” value is 0.6, the “Binding of serum London to looped/cyclic peptides of protein M of SARS-CoV Urbani” value is given as 0.2, the “Binding of serum SARS-green to linear peptides of protein M of SARS-CoV Urbani” value was 0.7 and the “Binding of serum SARS-green to looped/cyclic peptides of protein M of SARS-CoV Urbani” value is reported as 0.3. Also, in assay [1], the “Binding of serum SARS-yellow to linear peptides of protein M of SARS-CoV Urbani” value worked out at 0.3 and the “Binding of serum SARS-yellow to looped/cyclic peptides of protein M of SARS-CoV Urbani” value came out at 0.8. Besides, in assay [2], the “Rabbit serum linear peptides” value was 0.3 and the “Rabbit serum looped peptides” value is 0.4. Also, in assay [3], the “Binding of Control Serum Blood-Bank to Looped peptides of the protein M of SARS-CoV Urbani” value turned out to be 0.7, the “Binding of Control serum Blood-bank to linear peptides of the protein M of SARS-CoV Urbani” value was found to be 0.7, the “Binding of Control serum LUMC to linear peptides of the protein M of SARS-CoV Urbani” value came out at 1.0 and the “Binding of Control serum LUMC to looped peptides of the protein M of SARS-CoV Urbani” value was 0.8.

(Values after patent US20070128217A1 (priority 2003, published 2007).)
